In publication PMC11683478, “Bioprospecting of culturable marine biofilm bacteria for novel antimicrobial peptides” (iMeta, 2024):
Where no end group is shown, it is not given here.

Columns and labels:
[1] = tested on: Vibrio alginolyticus xv22; test: Antibacterial screen at 200 μg/mL (cell density vs control); type: cell-based; conditions: peptide 200 μg/mL, CAMHB, 5 × 10^5 CFU/mL, 37°C, 12 h, OD600; control (no AMP) = 1; three biological replicates
Procedure: (§1) Eight bacterial strains were utilized in the antibacterial experiment. S. aureus ATCC 12600, B. subtilis ATCC 23857, E. coli ATCC 11775, and A. baumannii ATCC 19606 were purchased from Shanghai Beinuo Biology. M. luteus ATCC 4698 and S. bongori ATCC43975 were purchased from Shanghai Beisi Biotechnology. V. owensii ems001 and V. alginolyticus xv22 from the intestines of diseased shrimps were isolated in our laboratory. All strains were cultured in the cation‐adjusted Mueller‐Hinton broth (CAMHB) at 37°C to the logarithmic growth phase (OD600 = 0.5). Then, bacteria were gradient‐diluted using fresh CAMHB to a bacterial density of 5 × 10^5 CFU/mL. Antibacterial experiments were performed in a 96‐well plate with 200 μg/mL final peptide concentration. Four experimental groups were set up, including a blank control (200 μL CAMHB), a negative control (180 μL CAMHB plus 20 μL peptide), a positive control (180 μL bacterial culture plus 20 μL ultrapure water), and an experimental group (180 μL bacterial culture plus 20 μL peptide). Three biological replicates were conducted for each group, and OD600 values were measured after incubation at 37°C for 12 h. Every observed value was removed from the blank control group value. The value of the experimental group was then subtracted from the value of the negative control group therefore eradicating the effect of the peptide on the OD measurement. Student's t‐test allowed the estimation of a notable variation between the experimental and positive groups using a p‐value of 0.05 as the limit. […] The MIC of a peptide against a bacterium was determined as the minimum peptide concentration at which there was no visible bacterial growth.

[2] = tested on: Salmonella bongori ATCC 43975; test: as above; type: cell-based; conditions: peptide 200 μg/mL, CAMHB, 5 × 10^5 CFU/mL, 37°C, 12 h, OD600; control (no AMP) = 1; three biological replicates
Procedure: as §1

[3] = tested on: Escherichia coli ATCC 11775; test: as above; type: cell-based; conditions: peptide 200 μg/mL, CAMHB, 5 × 10^5 CFU/mL, 37°C, 12 h, OD600; control (no AMP) = 1; three biological replicates
Procedure: as §1

[4] = tested on: Micrococcus luteus ATCC 4698; test: as above; type: cell-based; conditions: peptide 200 μg/mL, CAMHB, 5 × 10^5 CFU/mL, 37°C, 12 h, OD600; control (no AMP) = 1; three biological replicates
Procedure: as §1

[5] = tested on: Staphylococcus aureus ATCC 12600; test: as above; type: cell-based; conditions: peptide 200 μg/mL, CAMHB, 5 × 10^5 CFU/mL, 37°C, 12 h, OD600; control (no AMP) = 1; three biological replicates
Procedure: as §1

[6] = tested on: Acinetobacter baumannii ATCC 19606; test: as above; type: cell-based; conditions: peptide 200 μg/mL, CAMHB, 5 × 10^5 CFU/mL, 37°C, 12 h, OD600; control (no AMP) = 1; three biological replicates
Procedure: as §1

[7] = tested on: Bacillus subtilis ATCC 23857; test: as above; type: cell-based; conditions: peptide 200 μg/mL, CAMHB, 5 × 10^5 CFU/mL, 37°C, 12 h, OD600; control (no AMP) = 1; three biological replicates
Procedure: as §1

[8] = tested on: Vibrio owensii ems001; test: as above; type: cell-based; conditions: peptide 200 μg/mL, CAMHB, 5 × 10^5 CFU/mL, 37°C, 12 h, OD600; control (no AMP) = 1; three biological replicates
Procedure: as §1

[9] = tested on: sheep red blood cells; conditions: red cells of sheep, 1 h
Procedure: Freshly collected sheep blood was centrifuged at 3000 rpm for 10 min, and the supernatant was removed. The pellet was washed and resuspended with normal saline water to produce a 2% blood cell solution. Then, 400 μL of peptide solution was added to 100 μL of 2% blood cell solution to achieve final peptide concentrations of 8, 16, 32, 64, and 128 μg/mL. Normal saline water and Triton X‐100 normal saline solution (2%) were used as negative and positive controls, respectively. The samples were incubated in a water bath at 37°C for 1 h, followed by centrifugation at 3000 rpm for 10 min. Then, 200 μL of the supernatant was transferred to a 96‐well plate, and OD values were measured at a wavelength of 545 nm. The hemolysis rate of each sample was calculated using the following formula: Hemolysis ratio=OD545(experimental)−OD545(negative control)/OD545(positive control)−OD545(negative control)×100%.

Sequence | cell density relative to control, V. alginolyticus xv22 [1] | cell density relative to control, S. bongori ATCC 43975 [2] | cell density relative to control, E. coli ATCC 11775 [3] | cell density relative to control, M. luteus ATCC 4698 [4] | cell density relative to control, S. aureus ATCC 12600 [5] | cell density relative to control, A. baumannii ATCC 19606 [6] | cell density relative to control, B. subtilis ATCC 23857 [7] | cell density relative to control, V. owensii ems001 [8] | Hemolysis ratio (%) at 8μg/mL [9] | Hemolysis ratio (%) at 16μg/mL [9] | Hemolysis ratio (%) at 32μg/mL [9] | Hemolysis ratio (%) at 64μg/mL [9] | Hemolysis ratio (%) at 128μg/mL [9]
MAWISTRIACCCSTRLRRRIRTCSTSFCR [Cand-218, chemically synthesized candidate AMP predicted from marine biofilm bacteria] | 0.049 | 0.938 | 0.021 | 0.052 | 0 | 0.029 | 0.004 | 0.001 | – | – | – | – | –
MCALKWFCKSLIRALNKAT [Cand-68, chemically synthesized candidate AMP predicted from marine biofilm bacteria] | 0.012 | 0.024 | 0 | 0.001 | 0 | 0 | 0 | 0 | – | – | – | – | –
MCCVGRGVSFLRTRKCFIKS [Cand-161, chemically synthesized candidate AMP predicted from marine biofilm bacteria] | 0 | 0.12 | 0 | 0.788 | 0.001 | 0.543 | 0 | 0 | – | – | – | – | –
MCRFKCKVRTTITRPVCCWLIFM [Cand-168, chemically synthesized candidate AMP predicted from marine biofilm bacteria] | 0.418 | 0.482 | 0.553 | 1 | 1 | 1 | 0 | 0 | – | – | – | – | –
MCRWWPDWWHHRWWHCRGCCRFCRG [Cand-111, chemically synthesized candidate AMP predicted from marine biofilm bacteria] | 0.477 | 0.794 | 0.669 | 1 | 0.202 | 1 | 1 | 0.357 | – | – | – | – | –
MCTIRTCRRSRPHHCSTHC [Cand-101, chemically synthesized candidate AMP predicted from marine biofilm bacteria] | 0 | 0.855 | 0.967 | 0.91 | 0.01 | 0.879 | 0 | 1 | – | – | – | – | –
MCTRSCRPNLVKC [Cand-47, chemically synthesized candidate AMP predicted from marine biofilm bacteria] | 1 | 0.835 | 1 | 1 | 1 | 0.895 | 1 | 1 | – | – | – | – | –
MCTSKKKVWRCVAPS [Cand-33, chemically synthesized candidate AMP predicted from marine biofilm bacteria] | 0.879 | 1 | 0.96 | 1 | 0.874 | 0.813 | 0.601 | 1 | – | – | – | – | –
MFKFFCCIFYMCRIKTH [Cand-18, chemically synthesized candidate AMP predicted from marine biofilm bacteria] | 0 | 0.031 | 0.004 | 0 | 0 | 0.014 | 0 | 0.007 | – | – | – | – | –
MFSKLVKVLLKALCHVFMKCTFW [Cand-61, chemically synthesized candidate AMP predicted from marine biofilm bacteria] | 1 | 0.633 | 1 | 1 | 0 | 0.884 | 0 | 0.001 | – | – | – | – | –
MLTWLKKLQPYLISMMR [Cand-44] | – | – | – | – | – | – | – | – | 3.540% | 1.775% | 3.660% | 5.713% | 19.067%
MRPKKWLKKPKPRPKKWPTK [Cand-210] | – | – | – | – | – | – | – | – | 0.520% | 0.079% | 0.689% | 1.792% | –
MSPCLKGVIRSAVKSLHR [Cand-53] | – | – | – | – | – | – | – | – | 2.990% | 2.497% | 3.703% | 3.585% | –
MSPIRAWRRLRSC [Cand-144] | – | – | – | – | – | – | – | – | 1.328% | 1.615% | 1.536% | 3.230% | 10.013%
MWIRLTKRLRKSRSNR [Cand-214] | – | – | – | – | – | – | – | – | 1.812% | 2.604% | 3.258% | 3.738% | –
MWPLSKLWPSCFRKTT [Cand-5] | – | – | – | – | – | – | – | – | 2.350% | 1.575% | 0.874% | 7.118% | –
